Earlier results in US4867987A, “Pharmaceutical product for the sustained release of ibuprofen” (priority 1986, dated 1989).

Q: With `CC(C)Cc1ccc(C(C)C(=O)O)cc1` (stereo not shown) [ibuprofen, 2-(4-isobutylphenyl)propionic acid] as the molecule, how does the “complete elimination of ibuprofen and its metabolites after the last administration” value read?
A: Its value is ≤ 24 h.
